Results on three molecules are retold here after article PMC10235067, “Increased renal elimination of endogenous and synthetic pyrimidine nucleosides in concentrative nucleoside transporter 1 deficient mice” (Nature Communications, 2023).

Data set [1] is described as follows: Gemcitabine plasma pharmacokinetics in Slc28a1+/+ and Slc28a1-/- mice. The settings on record: Gem-TP in plasma, single intravenous dose of gemcitabine 50mg/kg, individual mice.
The subject of another data set is CNT1. The settings on record: Slc28a1-/- vs Slc28a1+/+; urine collected over 12 h starvation; 8-week-old mice; n = 6.

Structures are written as SMILES. Where “and” joins values, the source holds several entries; their conditions need not be identical. Equal entries are not always repeated.

Procedure for CNT1: Linearity was established for analytes over the concentration ranges observed and the lower limit of quantification of the LC–MS/MS assay was approximately 0.1 ng/ml for each analyte (Fig. S2).
Standard solutions of all nucleotide targets were serially diluted to generate calibration solutions at concentrations of 0.0, 0.0001, 0.001, 0.01, 0.1, 1.0, and 10 µg/ml. Urine samples were prepared by adding 20 µL of urine solution to 80 µL of 50:50 H2O:MeOH containing internal standard, vortexing and centrifuging at 20,000 × g; then, 50 µL aliquots were placed into glass vials, dried in a SpeedVac and reconstituted in 5% MeOH with 0.1% formic acid for injection.
Samples were quantified using a heated electrospray ionization source (HESI) on a Thermo Scientific TQS Quantiva triple quadrupole mass spectrometer, and separation was achieved using a Thermo Scientific Ultimate 3000 HPLC equipped with an Agilent 120 SB-C18 reversed-phase column (2 × 100 mm, 2.7 µm particle size) maintained at 40 °C. […] For all experiments, the capillary voltage was set to 4.5 kV with a capillary temperature of 350 °C, a vaporizer temperature of 100 °C, a sheath gas flow of 12, an auxiliary gas flow of 13, and a 1.6 sweep gas. For selected reaction monitoring (SRM) mode, Q1 and Q3 were set to 0.7 full width at half maximum (FWHM) resolution, a cycle time of 0.8 s, and a CID gas pressure of 1.5 mTorr.

By Cmax is commonly meant the highest concentration seen after dosing. A word on the Tmax: it is the time from dosing to the highest level. Turning to `Nc1ccn([C@@H]2O[C@H](COP(=O)(O)OP(=O)(O)OP(=O)(O)O)[C@@H](O)C2(F)F)c(=O)n1` [Gem-TP], in data set [1] (KO (Slc28a1-/-) mice), the AUCINF_D_obs was 509.381 kg·ng·min/mL/mg and 272.158 kg·ng·min/mL/mg and 1500.18 kg·ng·min/mL/mg and 597.23 kg·ng·min/mL/mg and 1529.97 kg·ng·min/mL/mg and 1749.53 kg·ng·min/mL/mg; the AUCINF_D_pred was 476.443 kg·ng·min/mL/mg and 251.621 kg·ng·min/mL/mg and 1436.01 kg·ng·min/mL/mg and 561.179 kg·ng·min/mL/mg and 1459.25 kg·ng·min/mL/mg and 1679.11 kg·ng·min/mL/mg; the AUCINF_obs is 25469 ng·min/mL and 13607.9 ng·min/mL and 75008.8 ng·min/mL and 29861.5 ng·min/mL and 76498.5 ng·min/mL and 87476.7 ng·min/mL; the AUCINF_pred is 23822.1 ng·min/mL and 12581.1 ng·min/mL and 71800.6 ng·min/mL and 28058.9 ng·min/mL and 72962.4 ng·min/mL and 83955.6 ng·min/mL. Further, in data set [1] (KO (Slc28a1-/-) mice), the AUC_%Back_Ext_obs is 0.5829% and 5.828% and 0.4312% and 2.002% and 0.5682% and 0.06111%; the AUC_%Back_Ext_pred is 0.6232% and 6.304% and 0.4505% and 2.131% and 0.5957% and 0.06367%; the AUC_%Extrap_obs was 67.4874% and 53.7747% and 79.3116% and 67.9349% and 78.2847% and 81.1285%; the AUC_%Extrap_pred is 65.2397% and 50.0019% and 78.3872% and 65.875% and 77.2323% and 80.3371%. Further, in data set [1] (KO (Slc28a1-/-) mice), the AUCall was 8280.65 ng·min/mL and 6290.29 ng·min/mL and 15518.1 ng·min/mL and 9575.11 ng·min/mL and 16611.9 ng·min/mL and 16508.1 ng·min/mL; the AUClast was 8280.65 ng·min/mL and 6290.29 ng·min/mL and 15518.1 ng·min/mL and 9575.11 ng·min/mL and 16611.9 ng·min/mL and 16508.1 ng·min/mL; the AUClast_D is 165.613 kg·ng·min/mL/mg and 125.806 kg·ng·min/mL/mg and 310.363 kg·ng·min/mL/mg and 191.502 kg·ng·min/mL/mg and 332.237 kg·ng·min/mL/mg and 330.163 kg·ng·min/mL/mg; the AUMCINF_obs was 14271006 min*min*ng/mL and 5009676 min*min*ng/mL and 73111057 min*min*ng/mL and 17625971 min*min*ng/mL and 70582595 min*min*ng/mL and 93013834 min*min*ng/mL. Besides, in data set [1] (KO (Slc28a1-/-) mice), the AUMCINF_pred is 12992303 min*min*ng/mL and 4388328 min*min*ng/mL and 69264936 min*min*ng/mL and 16149841 min*min*ng/mL and 66527378 min*min*ng/mL and 88496254 min*min*ng/mL; the AUMC_%Extrap_obs was 93.5147% and 88.3871% and 97.5522% and 94.251% and 97.3007% and 97.8918%; the AUMC_%Extrap_pred is 92.8764% and 86.7428% and 97.4162% and 93.7255% and 97.1361% and 97.7841%; the AUMClast is 925521 min*min*ng/mL and 581771 min*min*ng/mL and 1789646 min*min*ng/mL and 1013321 min*min*ng/mL and 1905271 min*min*ng/mL and 1960946 min*min*ng/mL. In data set [1] (KO (Slc28a1-/-) mice), the Cl_pred is 2098.89 mL/min/kg and 3974.23 mL/min/kg and 696.373 mL/min/kg and 1781.96 mL/min/kg and 685.285 mL/min/kg and 595.553 mL/min/kg; the Clast is 32.0426 ng/mL and 20.0426 ng/mL and 62.0426 ng/mL and 35.0426 ng/mL and 66.0426 ng/mL and 68.0426 ng/mL; the Clast_pred was 28.9724 ng/mL and 17.2301 ng/mL and 58.6968 ng/mL and 31.9288 ng/mL and 62.1429 ng/mL and 64.6666 ng/mL; the maximum concentration (Cmax) is 49.2745 ng/mL and 91.6911 ng/mL and 79.2745 ng/mL and 88.6911 ng/mL and 85.6911 ng/mL and 85.2745 ng/mL. For the same molecule, in data set [1] (KO (Slc28a1-/-) mice), the Cmax_D was 0.9855 kg·ng/mL/mg and 1.834 kg·ng/mL/mg and 1.585 kg·ng/mL/mg and 1.774 kg·ng/mL/mg and 1.714 kg·ng/mL/mg and 1.705 kg·ng/mL/mg; the HL_Lambda_z is 371.821 min and 253.07 min and 664.637 min and 401.268 min and 628.538 min and 722.954 min; the Lambda_z was 0.001864 min⁻¹ and 0.002739 min⁻¹ and 0.001043 min⁻¹ and 0.001727 min⁻¹ and 0.001103 min⁻¹ and 0.0009588 min⁻¹; the MRTINF_obs is 9.33878 h and 6.13575 h and 16.24 h and 9.83763 h and 15.3778 h and 17.722 h. Moreover, in data set [1] (KO (Slc28a1-/-) mice), the MRTINF_pred was 9.0898 h and 5.81342 h and 16.0781 h and 9.59282 h and 15.1967 h and 17.568 h; the MRTlast was 1.86282 h and 1.54145 h and 1.9221 h and 1.76382 h and 1.91155 h and 1.97978 h; the Tlast is recorded as 240 min; the Tmax was 0.167 h and 0.083 h. Moreover, in data set [1] (KO (Slc28a1-/-) mice), the Vss_obs was 1100.017 L/kg and 1352.688 L/kg and 649.724 L/kg and 988.326 L/kg and 603.062 L/kg and 607.76 L/kg; the Vss_pred is 1144.708 L/kg and 1386.23 L/kg and 671.779 L/kg and 1025.643 L/kg and 624.846 L/kg and 627.762 L/kg; the Vz_obs was 1053.09 L/kg and 1341.512 L/kg and 639.17 L/kg and 969.32 L/kg and 592.684 L/kg and 596.16 L/kg; the Vz_pred was 1125.894 L/kg and 1451.004 L/kg and 667.729 L/kg and 1031.591 L/kg and 621.408 L/kg and 621.163 L/kg. Also, in data set [1] (WT (Slc28a1+/+) mice), the AUCINF_D_obs is 627.983 kg·ng·min/mL/mg and 293.244 kg·ng·min/mL/mg and 2095.28 kg·ng·min/mL/mg and 746.583 kg·ng·min/mL/mg and 2357.3 kg·ng·min/mL/mg and 2481.13 kg·ng·min/mL/mg; the AUCINF_D_pred is 611.177 kg·ng·min/mL/mg and 283.996 kg·ng·min/mL/mg and 2059.29 kg·ng·min/mL/mg and 727.87 kg·ng·min/mL/mg and 2318.74 kg·ng·min/mL/mg and 2441.28 kg·ng·min/mL/mg; the AUCINF_obs is 31399.2 ng·min/mL and 14662.2 ng·min/mL and 104764 ng·min/mL and 37329.2 ng·min/mL and 117865 ng·min/mL and 124056 ng·min/mL; the AUCINF_pred is 30558.9 ng·min/mL and 14199.8 ng·min/mL and 102964 ng·min/mL and 36393.5 ng·min/mL and 115937 ng·min/mL and 122064 ng·min/mL. Also, in data set [1] (WT (Slc28a1+/+) mice), the AUC_%Back_Ext_obs is 0.6002% and 4.658% and 0.3469% and 1.514% and 0.3975% and 0.07533%; the AUC_%Back_Ext_pred was 0.6167% and 4.81% and 0.353% and 1.5528% and 0.4041% and 0.07656%; the AUC_%Extrap_obs is 74.9814% and 61.0207% and 85.5932% and 75.6831% and 86.2719% and 87.0356%; the AUC_%Extrap_pred was 74.2934% and 59.7514% and 85.3414% and 75.0579% and 86.0436% and 86.824%. In data set [1] (WT (Slc28a1+/+) mice), the AUCall is 7855.65 ng·min/mL and 5715.22 ng·min/mL and 15093.1 ng·min/mL and 9077.31 ng·min/mL and 16180.6 ng·min/mL and 16083.1 ng·min/mL; the AUClast is 7855.65 ng·min/mL and 5715.22 ng·min/mL and 15093.1 ng·min/mL and 9077.31 ng·min/mL and 16180.6 ng·min/mL and 16083.1 ng·min/mL; the AUClast_D is 157.113 kg·ng·min/mL/mg and 114.304 kg·ng·min/mL/mg and 301.863 kg·ng·min/mL/mg and 181.546 kg·ng·min/mL/mg and 323.613 kg·ng·min/mL/mg and 321.663 kg·ng·min/mL/mg; the AUMCINF_obs is 25618307 min*min*ng/mL and 7382666 min*min*ng/mL and 159455048 min*min*ng/mL and 32660009 min*min*ng/mL and 190278277 min*min*ng/mL and 207071348 min*min*ng/mL. In data set [1] (WT (Slc28a1+/+) mice), the AUMCINF_pred was 24735428 min*min*ng/mL and 7028934 min*min*ng/mL and 156289942 min*min*ng/mL and 31610468 min*min*ng/mL and 186705642 min*min*ng/mL and 203285848 min*min*ng/mL; the AUMC_%Extrap_obs was 96.5565% and 92.707% and 98.9048% and 97.0301% and 99.0215% and 99.0739%; the AUMC_%Extrap_pred is 96.4336% and 92.3399% and 98.8827% and 96.9315% and 99.0028% and 99.0567%; the AUMClast was 882171 min*min*ng/mL and 538421 min*min*ng/mL and 1746296 min*min*ng/mL and 969971 min*min*ng/mL and 1861921 min*min*ng/mL and 1917596 min*min*ng/mL. In addition, in data set [1] (WT (Slc28a1+/+) mice), the Cl_pred is 1636.19 mL/min/kg and 3521.18 mL/min/kg and 485.605 mL/min/kg and 1373.87 mL/min/kg and 431.268 mL/min/kg and 409.621 mL/min/kg; the Clast was 29.0426 ng/mL and 17.0426 ng/mL and 59.0426 ng/mL and 32.0426 ng/mL and 63.0426 ng/mL and 65.0426 ng/mL; the Clast_pred is 28.006 ng/mL and 16.1618 ng/mL and 57.8576 ng/mL and 30.9814 ng/mL and 61.8472 ng/mL and 63.8424 ng/mL; the peak concentration (Cmax) was 69.2745 ng/mL and 99.6911 ng/mL and 99.2745 ng/mL and 96.6911 ng/mL and 103.275 ng/mL and 105.275 ng/mL. Besides, in data set [1] (WT (Slc28a1+/+) mice), the Cmax_D was 1.385 kg·ng/mL/mg and 1.994 kg·ng/mL/mg and 1.985 kg·ng/mL/mg and 1.934 kg·ng/mL/mg and 2.065 kg·ng/mL/mg and 2.105 kg·ng/mL/mg; the HL_Lambda_z is 561.904 min and 363.887 min and 1052.72 min and 611.146 min and 1118.01 min and 1150.65 min; the Lambda_z is 0.001234 min⁻¹ and 0.001905 min⁻¹ and 0.0006584 min⁻¹ and 0.001134 min⁻¹ and 0.00062 min⁻¹ and 0.0006024 min⁻¹; the MRTINF_obs was 13.5982 h and 8.39195 h and 25.3673 h and 14.582 h and 26.9062 h and 27.8195 h. Also, in data set [1] (WT (Slc28a1+/+) mice), the MRTINF_pred was 13.4906 h and 8.25005 h and 25.298 h and 14.4762 h and 26.84 h and 27.757 h; the MRTlast is 1.87163 h and 1.57014 h and 1.92835 h and 1.78095 h and 1.91785 h and 1.9872 h; the Tlast turned out to be 240 min; the time to peak (Tmax) is 0.167 h and 0.083 h. Also, in data set [1] (WT (Slc28a1+/+) mice), the Vss_obs is 1299.224 L/kg and 1717.058 L/kg and 726.413 L/kg and 1171.898 L/kg and 684.839 L/kg and 672.746 L/kg; the Vss_pred was 1324.388 L/kg and 1742.993 L/kg and 737.1 L/kg and 1193.31 L/kg and 694.517 L/kg and 682.183 L/kg; the Vz_obs was 1290.887 L/kg and 1790.244 L/kg and 724.843 L/kg and 1180.977 L/kg and 684.235 L/kg and 669.067 L/kg; the Vz_pred was 1326.384 L/kg and 1848.542 L/kg and 737.512 L/kg and 1211.34 L/kg and 695.614 L/kg and 679.987 L/kg.
For the molecule `O=c1ccn([C@H]2C[C@H](O)[C@@H](CO)O2)c(=O)[nH]1` [deoxyuridine], the “fold increase of content in urine of Slc28a1-/- mice” value in the data set with CNT1 is recorded as 2.4 fold.
On the same count and under the same terms, next, `Nc1ccn([C@H]2C[C@H](O)[C@@H](CO)O2)c(=O)n1` [Deoxycytidine]: 44.8 fold.
